We go through 2 compounds from patent publication US9464326B2, “Total and phosphorylated IL-1 receptor-associated kinase-1 and IL-1 receptor-associated kinase-4 as a biomarker for cancer progression and chemotherapy resistance” (University of Maryland, Baltimore, priority 2012, dated 2016).

Assay type in all cases: cell-based, human
Assay [1] relates to CCRF-CEM cells. In words: Western blot of signaling proteins in CCRF-CEM. The note with it: 5 uM, 48 hours, FIG. 3D. From the text:
(FIG. 3C). […] (FIG. 3D). […] (FIG. 3D).
In general terms: A western blot detects proteins with antibodies after separation by electrophoresis.

Assay [2] deals with CCRF-CEM cells. Nature of the assay: Cell number and apoptosis assays. Particulars: 5 uM, 24-96 hours. How it is done: (§1) TLR ligands were diluted 2-fold. Cell lines (25-40×10^3/well) were cultured for 54 hours, whereas fresh patient-derived T-ALL cells (200×10^3/well) were cultured for 30 hours prior to adding [^3H]-thymidine for 18 hours. After this time point, cells were harvested with a Packard Filter-Mate-96 cell harvester (Perkin Elmer, Waltham, Mass., USA) and counted on Packard Top Count-NXT (Perkin Elmer, Waltham, Mass., USA). Results were expressed as average counts per minute (cpm). In some experiments CCRF-CEM cells were pre-treated with TLR1-TLR2 ligand (Pam3CysK4; 2.5 ug/ml) for 48 hrs, washed, and then cultured in the presence of varying concentrations of FBS. Forty-eight hours later, proliferation (±SD) was determined by ^3H-thymidine incorporation. Alternatively, apoptosis was measured by flow cytometry after staining cells with Annexin-V (BD Pharmingen, San Diego, Calif., USA) and propidium iodide (Sigma). Cell number was counted under microscopy by staining cells with trypan blue.
CCRF-CEM cells were treated with IRAK-1,-4 inhibitor for 24, 48, 72, and 96 hours.
The T-ALL cell line CCRF-CEM was cultured in the presence of 0, 1.2, 5, 10, and 20 μM IRAK-1,-4 inhibitor. (FIG. 23). To each concentration of IRAK-1,-4 inhibitor titrating doses of ABT-737 (1000→15 nM) vincristine, VS (10→0.1 nM), and paclitaxol, PAC (100→1.5 nM). […] Apoptosis was measure 48 hours later by staining cells with 7AAD and analyzed by flow cytometry.

A further assay concerns Loucy. Nature of the assay: Proliferation (3H-thymidine) of Loucy.
Source text: (§2) CCRF-CEM, CEM/C1, CEM/C2, CEM-C7, Jurkat, Loucy, Molt-4, HSB-2, SUP-T1, Hut 78, HH, Hut 102, MO, and H9 T-leukemia and T-lymphoma cell lines were purchased from the American Type Culture Collection (Manassas, Va., USA). All of the cell lines were initially expanded and cryopreserved within one month of receipt. Cells were typically used for 6 months at which time a fresh vial of cryopreserved cells was used. Total T cells from healthy donors were isolated via negative selection followed by positive selection using a CD3+ selection kit (Invitrogen, Carlsbad, Calif.). T cells were isolated from patients with T-ALL bone marrow or peripheral blood samples containing more than 70% leukemia cells using a CD2+ isolation kit (STEMCELL Technologies, Vancouver, Canada). All tissues were collected under institutional IRB-approved protocols and all participants gave written informed assent/consent. For in vitro experiments, T-ALL cells were cultured in AIM-V medium supplemented with 20% human AB serum in the presence of recombinant human stem cell factor (50 ng/mL; Amgen, Thousand Oaks, Calif.), insulin (20 nM; Sigma-Aldrich, St Louis, Mo., USA) and IL-7 (50 ng/mL; R&D Systems, Minneapolis, Minn., USA). In other experiments, protein lysate was collected using the Full Moon Biosystems (Sunnyvale, Calif., USA) buffer prior to protein examination by western blot or protein array.
as §1, with “Cells were cultured in a 96-well plate (Corning Costar, Corning, N.Y., USA) with various concentrations of TLR ligands 1-9, starting at 10 μg/ml, in a final volume of 200 ul. TLR ligands” for “TLR ligands”, “trypan blue. […]” for “trypan blue.”

A further assay relates to C32 melanoma cells. In words: Vinblastine-induced apoptosis in C32 (flow cytometry). Particulars: vinblastine 100 nM with TLR1-TLR2 ligand 2.5 μg/ml, 48 hours, FIG. 20B. How it is done: FIG. 20. Role of TLR-induced cytokines and NF-kB on cell survival. (A) A375 melanoma cells were cultured in a 48-well plates in the presence or absence of NF-kB inhibitor NF-kB inhibitor SN50 (100 nM; Anaspec) with or without vinblastine (100 nM) or Doxorubicin (0.25 μg/ml). The percentage of apoptotic cells was measured by staining cells with Annexin and PI 48 hours later and analyzed by flow cytometry. (B) C32 melanoma cells were cultured in the presence of vinblastine (100 nM) and in the […] of TLR1-TLR2 ligand (2.5 μg/ml) or the presence of supernatant from TLR1-TLR2-stimulated A375 cells. After 48 hours, apoptosis was measured by flow cytometry. (C) A375 melanoma cells were cultured in the presence or absence of vinblastine (100 nM) and IL-1 (50 ng/ml; BioLegend), IL-18 (100 ng/ml; Medical and Biological Lab) or CXCL1 (50 ng/ml; R&D Systems). Apoptosis was measured 48 hours later by flow cytometry.
Alternatively, cytokines/chemokines produced in response to TLR-IRAK signaling might also contribute to the chemoprotective effects. Supernatant from TLR-1-TLR-2 stimulated or unstimulated A375 melanoma cells was added to the C32 melanoma cells in the presence or absence of vinblastine. Another group of cells were treated with TLR1-TLR2 ligand and apoptosis was examined by flow cytometry. […]

A further assay deals with CEM-C7. Nature of the assay: Proliferation (3H-thymidine) of CEM-C7.
Source text: as §2
as §1, with “Cells were cultured in a 96-well plate (Corning Costar, Corning, N.Y., USA) with various concentrations of TLR ligands 1-9, starting at 10 μg/ml, in a final volume of 200 ul. TLR ligands” for “TLR ligands”
(§3) The following TLR ligands were purchased from Invivogen (San Diego, Calif., USA): tripalmitoyl-S-(bis(palmitoyloxy)propyl)-Cys-Ser-(Lys)3-Lys (TLR1-2); Poly I:C (TLR3); ultrapure S. Minnesota Lipopolysaccharide (TLR4); S. typhimurium flagellin (TLR5); FSL-1 (TLR2/6); Imiquimod (TLR7); ssRNA40/Lyovec (TLR8); CpG-ODN 2006 (TLR9).

The next assay concerns H9. In words: Proliferation (3H-thymidine) of H9.
Source text: as §2
as §1, with “Cells were cultured in a 96-well plate (Corning Costar, Corning, N.Y., USA) with various concentrations of TLR ligands 1-9, starting at 10 μg/ml, in a final volume of 200 ul. TLR ligands” for “TLR ligands”
as §3

As to `O=C(Nc1nc2ccccc2n1CCN1CCOCC1)c1cccc([N+](=O)[O-])c1` [IRAK-1,-4 inhibitor], in the assay on CCRF-CEM cells [1], the “decrease of phosphorylated-p65 levels” value was “four-fold”, the p-ERK1/2 levels result is reported as “did not alter”, the “reduction of p-AKT expression levels” value was “five-fold” and the “reduction of p-mTOR expression levels” value was “approximately six-fold”. For the same compound, in the assay on CCRF-CEM cells [2] (FIG. 14B), the “number of viable cells” value was “maintained a relatively constant number of viable cells”. Further, the “apoptosis (sub-G1 phase, Annexin V)” value in the assay with CCRF-CEM cells [2] (FIG. 14D) is reported as “did not induce apoptosis”.

Regarding “tripalmitoyl-S-(bis(palmitoyloxy)propyl)-Cys-Ser-(Lys)3-Lys [Pam3Cysk4]”, the “Proliferative effects of TLR ligands” value in the assay on Loucy (3H-thymidine uptake, 72 h) is reported as “+ (enhanced proliferation by 25% or greater)”; with CEM-C7 (3H-thymidine uptake, 72 h), “+ (enhanced proliferation by 25% or greater)”; with H9 (H9, 3H-thymidine uptake, 72 h) it was “∘”. The “TLR ligand concentration in parentheses below the symbol” value in the assay with Loucy (no unit in table (μg/ml)) and in the assay on CEM-C7 (no unit in table (μg/ml)) was “(2.5)” throughout. Besides, the vinblastine-induced apoptosis result in the assay on C32 melanoma cells is listed as “little effect”. Besides, the “effect on proliferation (in words)” value in the assay with H9 (H9 T-lymphoma, FIG. 1A) is reported as “no effect on proliferation”.
